Test: Body and organ weights after PCB52 nose-only inhalation
Type: in vivo, Sprague–Dawley rats
Conditions: for Relative Organ Weights, Brain / Relative Organ Weights, Kidneys / Relative Organ Weights, Liver / Relative Organ Weights, Lung / Relative Organ Weights, Ovaries / Relative Organ Weights, Spleen / Relative Organ Weights, Thymus / Relative Organ Weights, Testies: mean (standard deviation); for Adrenal Glands weight / Body Weight Post Exposure / Kidneys weight / Liver weight / Lung weight / Reproductive organ weight / Spleen weight / Thymus weight: n=6
Procedure: The Institutional Animal Care and Use Committee of the University of Iowa approved all of the animal protocols. Animals were housed in a temperature- and humidity-controlled room (21 °C, 55% relative humidity) with a 12 h light/dark cycle in an Association for the Assessment and Accreditation of Laboratory Animal Care (AAALAC) accredited animal facility. Animals were provided with food (sterile Teklad 5% stock diet, Harlan, Madison, WI) and water ad libitum throughout the study. Thirty-six male and female Sprague–Dawley rats (7 weeks of age; Charles River, Wilmington, MA) were allowed to acclimate to the animal facility for 8 days after arrival. Prior to exposure, rats (227 ± 27 and 197 ± 13 g, male and female, respectively) were randomly assigned to the exposure groups (n = 6 per group) using a random number generated (Excel, version 2307). Animals were simultaneously exposed for 4 h to a low or high concentration of PCB52-laden per sex) or filtered lab air (Figure 1A). Exposure duration was limited to 4 h along with scheduled training days (30 min at 55 days of age and 2 h at 56 days of age) to acclimate animals and minimize stress. […] Animal exposure occurred for 4 h at 57 days of age. Rats are considered adolescents at this age.[38] Serum was collected immediately after the animals were removed from the nose-only apparatus by cardiac puncture under isoflurane anesthesia. Rats were perfused with saline, and organs were excised and stored at −80 °C. Body and organ weights, including brain, lungs, and thymus, were not altered by PCB52 inhalation regardless of sex or exposure (Tables S2 and S3).

Clc1ccc(Cl)c(-c2cc(Cl)ccc2Cl)c1 [PCB52, 2,2′,5,5′-tetrachlorobiphenyl]
Relative Organ Weights, Brain (Females, High): 0.010 (0.001) g/g BW
Relative Organ Weights, Kidneys (Females, High): 0.009 (0.001) g/g BW
Relative Organ Weights, Liver (Females, High): 0.042 (0.003) g/g BW
Relative Organ Weights, Lung (Females, High): 0.006 (0.001) g/g BW
Relative Organ Weights, Ovaries (Females, High): 0.003 (0.001) g/g BW
Relative Organ Weights, Spleen (Females, High): 0.002 (0.001) g/g BW
Relative Organ Weights, Thymus (Females, High): 0.003 (0.001) g/g BW
Relative Organ Weights, Brain (Females, Low): 0.010 (0.001) g/g BW
Relative Organ Weights, Kidneys (Females, Low): 0.009 (0.001) g/g BW
Relative Organ Weights, Liver (Females, Low): 0.044 (0.002) g/g BW
Relative Organ Weights, Lung (Females, Low): 0.007 (0.001) g/g BW
Relative Organ Weights, Ovaries (Females, Low): 0.003 (0.001) g/g BW
Relative Organ Weights, Spleen (Females, Low): 0.003 (0.001) g/g BW
Relative Organ Weights, Thymus (Females, Low): 0.003 (0.001) g/g BW
Adrenal Glands weight (High exposure group, female): 0.06 grams
Body Weight Post Exposure (High exposure group, female): 196.92 ± 9.39 grams
Kidneys weight (High exposure group, female): 1.85 grams
Liver weight (High exposure group, female): 8.29 grams
Lung weight (High exposure group, female): 1.23 grams
Reproductive organ weight (High exposure group, female): 0.59 ± 0.16 grams
Spleen weight (High exposure group, female): 0.44 grams
Thymus weight (High exposure group, female): 0.58 ± 0.06 grams
Adrenal Glands weight (High exposure group, male): 0.03 grams
Body Weight Post Exposure (High exposure group, male): 192.17 ± 22.01 grams
Kidneys weight (High exposure group, male): 1.73 grams
Liver weight (High exposure group, male): 9.28 grams
Lung weight (High exposure group, male): 1.52 grams
Reproductive organ weight (High exposure group, male): 1.82 ± 0.52 grams
Spleen weight (High exposure group, male): 0.53 grams
Thymus weight (High exposure group, male): 0.56 ± 0.05 grams
Adrenal Glands weight (Low exposure group, female): 0.04 grams
Body Weight Post Exposure (Low exposure group, female): 183.46 ± 14.31 grams
Kidneys weight (Low exposure group, female): 1.70 grams
Liver weight (Low exposure group, female): 8.11 grams
Lung weight (Low exposure group, female): 1.24 grams
Reproductive organ weight (Low exposure group, female): 0.55 ± 0.10 grams
Spleen weight (Low exposure group, female): 0.47 grams
Thymus weight (Low exposure group, female): 0.61 ± 0.12 grams
Adrenal Glands weight (Low exposure group, male): 0.04 grams
Body Weight Post Exposure (Low exposure group, male): 228.20 ± 14.09 grams
Kidneys weight (Low exposure group, male): 1.99 grams
Liver weight (Low exposure group, male): 10.31 grams
Lung weight (Low exposure group, male): 1.48 grams
Reproductive organ weight (Low exposure group, male): 2.51 ± 0.14 grams
Spleen weight (Low exposure group, male): 0.59 grams
Thymus weight (Low exposure group, male): 0.70 ± 0.15 grams
Relative Organ Weights, Brain (Males, High): 0.010 (0.001) g/g BW
Relative Organ Weights, Kidneys (Males, High): 0.009 (0.001) g/g BW
Relative Organ Weights, Liver (Males, High): 0.048 (0.003) g/g BW
Relative Organ Weights, Lung (Males, High): 0.008 (0.002) g/g BW
Relative Organ Weights, Spleen (Males, High): 0.003 (0.001) g/g BW
Relative Organ Weights, Testies (Males, High): 0.009 (0.002) g/g BW
Relative Organ Weights, Thymus (Males, High): 0.003 (0.001) g/g BW
Relative Organ Weights, Brain (Males, Low): 0.008 (0.001) g/g BW
Relative Organ Weights, Kidneys (Males, Low): 0.009 (0.001) g/g BW
Relative Organ Weights, Liver (Males, Low): 0.045 (0.002) g/g BW
Relative Organ Weights, Lung (Males, Low): 0.007 (0.002) g/g BW
Relative Organ Weights, Spleen (Males, Low): 0.003 (0.001) g/g BW
Relative Organ Weights, Testies (Males, Low): 0.011 (0.001) g/g BW
Relative Organ Weights, Thymus (Males, Low): 0.003 (0.001) g/g BW
Body and organ weights, including brain, lungs, and thymus (regardless of sex or exposure): not altered
